# Data reported in BindingDB's records for doi:10.1021/jm800889m (University of Wisconsin At Madison, 2008).
# pKi: −log10 of the molar value.
# Tests used:
# Test in all cases: Radioligand Binding Assay
# [1] = target: T1, Gamma-aminobutyric acid receptor subunit alpha-1 [28-456]/beta-2 [26-512]/gamma-2 [40-467,R224C] (Homo sapiens, UniProt P14867+P18507+P47870, R224C); conditions: 25 °C
# T1 construct: 28-456; 26-512; 40-467
# [2] = target: T2, Gamma-aminobutyric acid receptor subunit alpha-1 [S204C]/beta-2 [26-512]/gamma-2 [40-467] (Homo sapiens, UniProt P14867+P18507+P47870, S204C); conditions: 25 °C
# T2 construct: 26-512; 40-467
# [3] = target: T3, Gamma-aminobutyric acid receptor subunit alpha-4 [36-554]/beta-2 [26-512]/gamma-2 [40-467] (Homo sapiens, UniProt P18507+P47870+P48169); conditions: pH 7.4; 22 °C
# T3 construct: 36-554; 26-512; 40-467
# [4] = target: T4, Gamma-aminobutyric acid receptor subunit alpha-2 [29-451]/beta-2 [26-512]/gamma-2 [40-467] (Homo sapiens, UniProt P18507+P47869+P47870); conditions: pH 7.4; 22 °C
# T4 construct: 29-451; 26-512; 40-467
# [5] = target: T5, Gamma-aminobutyric acid receptor subunit alpha-6 [20-453]/beta-2 [26-512]/gamma-2 [40-467] (Homo sapiens, UniProt P18507+P47870+Q16445); conditions: pH 7.4; 22 °C
# T5 construct: 20-453; 26-512; 40-467
# [6] = target: T6, Gamma-aminobutyric acid receptor subunit alpha-1 [28-456]/beta-2 [26-512]/gamma-2 [40-467,M169C] (Homo sapiens, UniProt P14867+P18507+P47870, M169C); conditions: 25 °C
# T6 construct: 28-456; 26-512; 40-467
# [7] = target: T7, Gamma-aminobutyric acid receptor subunit alpha-1 [G157C]/beta-2 [26-512]/gamma-2 [40-467] (Homo sapiens, UniProt P14867+P18507+P47870, G157C); conditions: 25 °C
# T7 construct: 26-512; 40-467
# [8] = target: T8, Gamma-aminobutyric acid receptor subunit alpha-1 [28-456]/beta-2 [26-512]/gamma-2 [40-467,T120C] (Homo sapiens, UniProt P14867+P18507+P47870, T120C); conditions: 25 °C
# T8 construct: 28-456; 26-512; 40-467
# [9] = target: T9, Gamma-aminobutyric acid receptor subunit alpha-1 [S205C]/beta-2 [26-512]/gamma-2 [40-467] (Homo sapiens, UniProt P14867+P18507+P47870, S205C); conditions: 25 °C
# T9 construct: 26-512; 40-467
# [10] = target: T10, Gamma-aminobutyric acid receptor subunit alpha-1 [28-456]/beta-2 [26-512]/gamma-2 [40-467,R183C] (Homo sapiens, UniProt P14867+P18507+P47870, R183C); conditions: 25 °C
# T10 construct: 28-456; 26-512; 40-467
# [11] = target: T11, Gamma-aminobutyric acid receptor subunit alpha-1 [28-456]/beta-2 [26-512]/gamma-2 [40-467,D95C] (Homo sapiens, UniProt P14867+P18507+P47870, D95C); conditions: 25 °C
# T11 construct: 28-456; 26-512; 40-467
# [12] = target: T12, Gamma-aminobutyric acid receptor subunit alpha-1 [28-456]/beta-2 [26-512]/gamma-2 [40-467,R233C] (Homo sapiens, UniProt P14867+P18507+P47870, R233C); conditions: 25 °C
# T12 construct: 28-456; 26-512; 40-467
# [13] = target: T13, Gamma-aminobutyric acid receptor subunit alpha-1 [28-456]/beta-2 [26-512]/gamma-2 [40-467,T181C] (Homo sapiens, UniProt P14867+P18507+P47870, T181C); conditions: 25 °C
# T13 construct: 28-456; 26-512; 40-467
# [14] = target: T14, Gamma-aminobutyric acid receptor subunit alpha-1 [G200C]/beta-2 [26-512]/gamma-2 [40-467] (Homo sapiens, UniProt P14867+P18507+P47870, G200C); conditions: 25 °C
# T14 construct: 26-512; 40-467
# [15] = target: T15, Gamma-aminobutyric acid receptor subunit alpha-5 [32-462]/beta-2 [26-512]/gamma-2 [40-467] (Homo sapiens, UniProt P18507+P31644+P47870); conditions: pH 7.4; 22 °C
# T15 construct: 32-462; 26-512; 40-467
# [16] = target: T16, Gamma-aminobutyric acid receptor subunit alpha-1 [V202C]/beta-2 [26-512]/gamma-2 [40-467] (Homo sapiens, UniProt P14867+P18507+P47870, V202C); conditions: 25 °C
# T16 construct: 26-512; 40-467
# [17] = target: T17, Gamma-aminobutyric acid receptor subunit alpha-1 [28-456]/beta-2 [26-512]/gamma-2 [40-467] (Homo sapiens, UniProt P14867+P18507+P47870); conditions: pH 7.4; 22 °C
# T17 construct: 28-456; 26-512; 40-467
# [18] = target: T18, Gamma-aminobutyric acid receptor subunit alpha-1 [28-456]/beta-2 [26-512]/gamma-2 [40-467,R171C] (Homo sapiens, UniProt P14867+P18507+P47870, R171C); conditions: 25 °C
# T18 construct: 28-456; 26-512; 40-467
# [19] = target: T19, Gamma-aminobutyric acid receptor subunit alpha-1 [A160C]/beta-2 [26-512]/gamma-2 [40-467] (Homo sapiens, UniProt P14867+P18507+P47870, A160C); conditions: 25 °C
# T19 construct: 26-512; 40-467
# [20] = target: T20, Gamma-aminobutyric acid receptor subunit alpha-1 [28-456]/beta-2 [26-512]/gamma-2 [40-467,L179C] (Homo sapiens, UniProt P14867+P18507+P47870, L179C); conditions: 25 °C
# T20 construct: 28-456; 26-512; 40-467
# [21] = target: T21, Gamma-aminobutyric acid receptor subunit alpha-1 [28-456]/beta-2 [26-512]/gamma-2 [40-200],P14867[176-456] (Homo sapiens, UniProt P14867+P18507+P47870); conditions: 25 °C
# T21 construct: 28-456; 26-512; 40-200; 176-456
# [22] = target: T22, Gamma-aminobutyric acid receptor subunit alpha-3 [29-492]/beta-2 [26-512]/gamma-2 [40-467] (Homo sapiens, UniProt P18507+P34903+P47870); conditions: pH 7.4; 22 °C
# T22 construct: 29-492; 26-512; 40-467
# [23] = target: T23, Gamma-aminobutyric acid receptor subunit alpha-1 [T162C]/beta-2 [26-512]/gamma-2 [40-467] (Homo sapiens, UniProt P14867+P18507+P47870, T162C); conditions: 25 °C
# T23 construct: 26-512; 40-467
# [24] = target: T24, Gamma-aminobutyric acid receptor subunit alpha-1 [V211C]/beta-2 [26-512]/gamma-2 [40-467] (Homo sapiens, UniProt P14867+P18507+P47870, V211C); conditions: 25 °C
# T24 construct: 26-512; 40-467
# [25] = target: T25, Gamma-aminobutyric acid receptor subunit alpha-1 [F99C]/beta-2 [26-512]/gamma-2 [40-467] (Homo sapiens, UniProt P14867+P18507+P47870, F99C); conditions: pH 7.4; 22 °C
# T25 construct: 26-512; 40-467
# [26] = target: T26, Gamma-aminobutyric acid receptor subunit alpha-1 [28-456]/beta-2 [26-512]/gamma-2 [40-467,A118C] (Homo sapiens, UniProt P14867+P18507+P47870, A118C); conditions: 25 °C
# T26 construct: 28-456; 26-512; 40-467
# [27] = target: T27, Gamma-aminobutyric acid receptor subunit alpha-1 [T206C]/beta-2 [26-512]/gamma-2 [40-467] (Homo sapiens, UniProt P14867+P18507+P47870, T206C); conditions: 25 °C
# T27 construct: 26-512; 40-467
# [28] = target: T28, Gamma-aminobutyric acid receptor subunit alpha-1 [28-456]/beta-2 [26-512]/gamma-2 [40-467,T165C] (Homo sapiens, UniProt P14867+P18507+P47870, T165C); conditions: 25 °C
# T28 construct: 28-456; 26-512; 40-467
structure (smiles),measurement,setting,value
CN1CCN(C(=O)Oc2c3[nH]ccnc-3c(=O)n2-c2ccc(Cl)cn2)CC1 [ESZ],pKi,[1],7.15
same,pKi,[2],7.24
same,pKi,[3],< 4.82
same,pKi,[4],6.94
same,pKi,[5],< 4.82
same,pKi,[6],6.99
same,pKi,[7],5.68
same,pKi,[8],7.12
same,pKi,[9],7.46
same,pKi,[10],6.76
same,pKi,[11],7.08
same,pKi,[12],7.17
same,pKi,[13],6.30
same,pKi,[14],6.92
same,pKi,[15],6.99
same,pKi,[16],6.60
same,pKi,[17],7.30
same,pKi,[18],6.96
same,pKi,[19],7.22
same,pKi,[20],7.33
same,pKi,[21],7.65
same,pKi,[22],6.79
same,pKi,[23],7.47
same,pKi,[24],7.20
same,pKi,[25],6.39
same,pKi,[26],6.41
same,pKi,[27],9.08
same,pKi,[28],7.14
Cc1ccc(-c2nc3ccc(C)cn3c2CC(=O)N(C)C)cc1 [Ambien],pKi,[3],< 4.82
same,pKi,[15],< 4.82
